Assay results from patent EP0054578A1, “N-(substituted chromone-3-carbonyl)-phenylglycine derivatives” (Eisai Co., Ltd., priority 1980, dated 1982).
Converted amounts (≈) assume the structure as drawn.

What was measured:
Test in all cases: Antibacterial activity (MIC)
Format in all cases: cell-based
[1] = test system: Escherichia coli NIHJ
[2] = test system: Serratia marcescens ES-75; settings: ES75
[3] = test system: Klebsiella pneumoniae EK-6; settings: EK6
[4] = test system: Proteus morganii EP-14; settings: Morganella morganii, EP14
[5] = test system: Staphylococcus aureus 209-P
[6] = test system: Pseudomonas aeruginosa EP-172; settings: EP172

| MIC [1] | MIC [2] | MIC [3] | MIC [4] | MIC [5] | MIC [6] | Structure (SMILES) |
| --- | --- | --- | --- | --- | --- | --- |
| 0.4 µg/mL (≈ 0.46 µM) | ≤ 0.05 µg/mL | ≤ 0.05 µg/mL | 1.56 µg/mL (≈ 1.79 µM) | 6.25 µg/mL (≈ 7.19 µM) | 0.8 µg/mL (≈ 0.92 µM) | CCOC(=O)Oc1cc2occ(C(=O)N[C@@H](C(=O)N[C@@H]3C(=O)N4C(C(=O)O)=C(CSc5nnnn5CC(=O)O)CS[C@H]34)c3ccc(O)cc3)c(=O)c2cc1OC(=O)OCC [Preparatory Example 2 A, 7β-[D-2-{6,7-bis(ethoxycarbonyloxy)chromone-3-carboxamido}-2-(4-hydroxyphenyl)acetamido]-3-[(1-carboxymethyl-5-tetrazolyl)thiomethyl]-3-cephem-4-carboxylic acid] |
| 0.4 µg/mL (≈ 0.551 µM) | ≤ 0.1 µg/mL | ≤ 0.1 µg/mL | 12.5 µg/mL (≈ 17.2 µM) | 3.13 µg/mL (≈ 4.31 µM) | 0.8 µg/mL (≈ 1.1 µM) | O=C(O)Cn1nnnc1SCC1=C(C(=O)O)N2C(=O)[C@@H](NC(=O)[C@H](NC(=O)c3coc4cc(O)c(O)cc4c3=O)c3ccc(O)cc3)[C@H]2SC1 [Preparatory Example 2 B, 7β-[D-2-(6,7-Dihydroxychromone-3-carboxyamido)-2-(4-hydroxyphenyl)acetamido]-3-[(1-carboxymethyl-5-tetrazolyl)thiomethyl]-cephem-4-carboxylic acid] |
